Read-outs that look alike come from different tables or passages of the source.
Key:
Arg_m = target: T1, Arg_m (Mus musculus, UniProt Q4JIM5); assay: SelectScreen kinase assay; assay type: biochemical; conditions: KM ATP
T1 construct: purchased Life Technologies (Invitrogen) SelectScreen, Z'-LYTE / Adapta
Description: (§1) Syk kinase mode of inhibition studies, including parameters described in Fig 1, were conducted on the LC3000 platform by Caliper Life Sciences (Hopkinton, MA) according to standard protocols developed by the supplier. […] Non-kinase enzyme assays and GPCR, ion channel, and transporter binding assays were run by CEREP (France). Non-GLP manual patch clamp hERG assays were run by ChanTest (Cleveland, Ohio). Vivid® Assay kits (Life Technologies) were used to measure the cytochrome P450 inhibition of the compound against CYP3A, CYP2C9, CYP2C19, CYP2D6, and CYP1A2, as described.
(§2) Kinase activity was measured using either the Z’-Lyte® or the Adapta® protocols as part of the SelectScreen™ profiling service offered at Life Technologies (Grand Island, NY). For the single point measurements (Part A), CC-509 was kept constant at 3 µM while ATP concentrations [ATP] used were at the KM for ATP (KM ATP) for that specific enyzme, at 10 or 100 µM ATP (10 ATP or 100 ATP, respectively), as indicated. Values expressed as percent control (% control) relative to DMSO-only wells (uninhibited, 100%).
(§3) Kinase activity was measured using either the Z’-Lyte® or the Adapta® protocols as part of the SelectScreen™ profiling service offered at Life Technologies (Grand Island, NY). […] Values expressed as percent control (% control) relative to DMSO-only wells (uninhibited, 100%).

GRK2_h = target: T2, GRK2_h (Homo sapiens, UniProt P25098); assay: SelectScreen kinase assay; assay type: biochemical; conditions: KM ATP
T2 construct: purchased Life Technologies (Invitrogen) SelectScreen, Z'-LYTE / Adapta
Description: as §1, §2, §3

PKC-alpha_h = target: T3, PKC-alpha_h (Homo sapiens, UniProt P17252); assay: SelectScreen kinase assay; assay type: biochemical; conditions: KM ATP
T3 construct: purchased Life Technologies (Invitrogen) SelectScreen, Z'-LYTE / Adapta
Description: as §1, §2, §3

PKC-betaII_h = target: T4, PKC-betaII_h (Homo sapiens, UniProt P05771); assay: SelectScreen kinase assay; assay type: biochemical; conditions: KM ATP
T4 construct: purchased Life Technologies (Invitrogen) SelectScreen, Z'-LYTE / Adapta
Description: as §1, §2, §3

SGK2_h = target: T5, SGK2_h (Homo sapiens, UniProt Q9HBY8); assay: SelectScreen kinase assay; assay type: biochemical; conditions: KM ATP
T5 construct: purchased Life Technologies (Invitrogen) SelectScreen, Z'-LYTE / Adapta
Description: as §1, §2, §3

SGK_h = target: T6, SGK_h (Homo sapiens, UniProt O00141); assay: SelectScreen kinase assay; assay type: biochemical; conditions: KM ATP
T6 construct: purchased Life Technologies (Invitrogen) SelectScreen, Z'-LYTE / Adapta
Description: as §1, §2, §3

panel of 256 kinases = assay: commercial panel of 256 kinases (SelectScreen), overall kinome selectivity; assay type: biochemical; conditions: for number of kinases inhibited by >80% of 256 kinases: 3 μM
Description: as §1, §2, §3

[1] = test system: BCR-dependent CD69 upregulation on primary human B-cells; assay: primary human B-cell assay, anti-IgM stimulated CD69 upregulation; assay type: cell-based
Description: Buffy coat-derived purified B-cells were generated using the RosetteSep B-cell and Ficoll-Paque Plus reagents, as described in protocols provided by the suppliers. Purified B-cells were plated in 96-well U-bottom plates, preincubated with CC-509 at indicated concentrations for 30 minutes, and then stimulated with anti-IgM for 14 hours in a tissue culture incubator. Plates were washed once in FBS Stain Buffer and incubated with the anti-CD69 antibody in the dark for 30 minutes at room temperature. Plates were washed three times and analyzed by flow cytometry on the FACSArray Bioanalyzer. Standard gating methods were used to identify B-cells and to measure the mean intensity of CD69 fluorescence. FCS files were exported and analyzed as described in the Data Analysis section.
For the TEL-Syk assay, the intensity values for the 700 and 800 channel were exported as text files in ActivityBase (IDBS, Guildford, UK) to derive the ratios that reflect kinase activity. For LAD2 experiments, enzyme activity values were exported as text files into ActivityBase to calculate “percent release” according to the formula: 100* supernatant OD405/ (supernatant OD405 + (pellet OD405*pellet dilution factor)). For the basophil and B-cells assays, flow cytometry data was exported from the FACS Array and processed using FloJo software package (TreeStar, Inc., Ashland, Oregon). For the JAK2 HEL and Ramos NFAT β-lactamase assays, the fluorescence values obtained at 460 nm and 530 nm were exported into ActivityBase to calculate response ratios. For the neutrophil, macrophage, KDR, and JAK1/3 assays, raw values were exported into ActivityBase to calculate percent inhibition. All IC50 calculations were generated using XLfit (IDBS, Guildford, UK) algorithm 205 within Excel. […] Evans blue dye extravasation was expressed as mean ± SEM and % inhibition for the test article groups was normalized to the cromolyn positive control. […] The mean data from each group was plotted and either the AUC(day 11–18) or % inhibition on day 18 was calculated. Data is expressed as mean ± SEM of each group with n = 6–12. […]

[2] = test system: basophil activation in human whole blood; assay: basophil human whole blood assay (CD63); assay type: cell-based
Description: Assay was conducted according to the protocol for the BasoTest kit provided by supplier (Biocarta, San Diego, CA), with slight modification. Briefly, 100μl of heparinized human whole blood was added to each well of a 24-well deep plate (Microliter Analytical Supplies, Suwanee, GA) and preincubated with CC-509 for 30 minutes in a 37°C water bath. Basophils were stimulated with mite or dust extract (included in kit), or anti-IgE (diluted 1:10,000) for 20 minutes in a 37°C water bath and then on ice for 5 minutes. Cells were incubated in the FcεR receptor and CD63 antibody staining solution (included in kit) for 20 minutes on ice followed by agitation in a fixative/ red blood cell lysis buffer (included in kit) for 10 minutes at room temperature. Cells were washed twice with Basosalt solution (included in kit) and the final cell suspensions was transferred to U-bottom 96-well plates (BD Falcon, San Diego, CA) for analysis by flow cytometry on the FACSArray Bioanalyzer (BD Biosciences, San Jose, CA). Standard gating methods were used to identify basophils and to measure the mean intensity of CD63 fluorescence. FCS files were exported and analyzed as described in the Data Analysis section.
For the TEL-Syk assay, the intensity values for the 700 and 800 channel were exported as text files in ActivityBase (IDBS, Guildford, UK) to derive the ratios that reflect kinase activity. For LAD2 experiments, enzyme activity values were exported as text files into ActivityBase to calculate “percent release” according to the formula: 100* supernatant OD405/ (supernatant OD405 + (pellet OD405*pellet dilution factor)). For the basophil and B-cells assays, flow cytometry data was exported from the FACS Array and processed using FloJo software package (TreeStar, Inc., Ashland, Oregon). For the JAK2 HEL and Ramos NFAT β-lactamase assays, the fluorescence values obtained at 460 nm and 530 nm were exported into ActivityBase to calculate response ratios. For the neutrophil, macrophage, KDR, and JAK1/3 assays, raw values were exported into ActivityBase to calculate percent inhibition. All IC50 calculations were generated using XLfit (IDBS, Guildford, UK) algorithm 205 within Excel. For PCA, the OD from the saline injected site was subtracted from the OD from the anti-DNP IgE injected site. Evans blue dye extravasation was expressed as mean ± SEM and % inhibition for the test article groups was normalized to the cromolyn positive control. For the CIA model paw measurements (left and right ankle diameter) were taken for each individual animal and averaged. The mean data from each group was plotted and either the AUC(day 11–18) or % inhibition on day 18 was calculated. Data is expressed as mean ± SEM of each group with n = 6–12. […]

MH7A cells = assay: MH7A synoviocytes, TNFα-induced IL-6 production; assay type: cell-based, human
Description: Cells were maintained in culture and assayed as described by supplier. Briefly, MH7A cells were seeded to 6000 cells/ well in 96 well plates 1 day prior to stimulation. Cells were pretreated with compounds for 30 minutes, stimulated with TNFα (2 ng/ml) or IL-1β (0.5 ng/ml) and placed in tissue culture incubator for 16 hours. Supernatants were collected and assayed for cytokines using the Mesoscale Proinflammatory Panel I or Proinflammatory 4-plex according to the manufacturer’s protocol (Mesoscale, Gaithersberg, MD).

T4 sequence (P05771 1-673 isoform P05771-2): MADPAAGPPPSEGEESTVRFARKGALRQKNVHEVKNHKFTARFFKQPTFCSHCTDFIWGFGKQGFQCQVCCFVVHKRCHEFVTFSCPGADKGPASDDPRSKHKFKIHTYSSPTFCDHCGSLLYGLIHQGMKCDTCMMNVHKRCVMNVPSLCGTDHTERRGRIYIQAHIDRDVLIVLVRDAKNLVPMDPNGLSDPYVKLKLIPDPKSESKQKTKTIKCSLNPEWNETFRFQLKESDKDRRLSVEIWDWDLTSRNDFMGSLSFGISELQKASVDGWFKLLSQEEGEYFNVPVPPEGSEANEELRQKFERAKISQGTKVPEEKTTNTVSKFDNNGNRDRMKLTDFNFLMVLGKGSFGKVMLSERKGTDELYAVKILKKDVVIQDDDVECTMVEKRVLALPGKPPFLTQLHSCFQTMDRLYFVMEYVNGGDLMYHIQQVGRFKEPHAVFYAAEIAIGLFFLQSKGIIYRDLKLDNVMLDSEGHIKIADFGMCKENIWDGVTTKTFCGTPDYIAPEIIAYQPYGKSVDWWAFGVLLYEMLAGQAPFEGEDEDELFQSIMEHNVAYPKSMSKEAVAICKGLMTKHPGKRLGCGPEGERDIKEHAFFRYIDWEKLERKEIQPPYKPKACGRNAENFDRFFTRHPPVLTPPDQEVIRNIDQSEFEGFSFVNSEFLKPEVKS
T2 sequence (P25098 whole entry): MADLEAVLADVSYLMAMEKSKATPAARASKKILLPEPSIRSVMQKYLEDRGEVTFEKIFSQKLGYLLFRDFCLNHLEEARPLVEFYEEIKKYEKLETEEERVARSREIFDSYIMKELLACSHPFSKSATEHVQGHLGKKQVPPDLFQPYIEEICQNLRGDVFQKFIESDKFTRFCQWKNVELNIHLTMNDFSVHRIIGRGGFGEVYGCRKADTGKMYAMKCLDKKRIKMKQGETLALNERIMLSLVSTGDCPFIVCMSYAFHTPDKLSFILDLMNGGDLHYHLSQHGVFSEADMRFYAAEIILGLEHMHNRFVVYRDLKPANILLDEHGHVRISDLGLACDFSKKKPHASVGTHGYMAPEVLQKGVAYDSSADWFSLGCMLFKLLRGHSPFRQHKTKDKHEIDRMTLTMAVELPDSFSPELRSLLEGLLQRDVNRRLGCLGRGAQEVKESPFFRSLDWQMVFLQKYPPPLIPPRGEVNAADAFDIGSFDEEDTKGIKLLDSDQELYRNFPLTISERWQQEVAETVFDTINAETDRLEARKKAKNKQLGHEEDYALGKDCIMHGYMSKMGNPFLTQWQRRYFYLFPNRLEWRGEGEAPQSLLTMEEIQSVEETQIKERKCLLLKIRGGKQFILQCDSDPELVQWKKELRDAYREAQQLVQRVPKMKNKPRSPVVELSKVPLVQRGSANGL
T1 sequence (Q4JIM5 2-1182 limits assumed): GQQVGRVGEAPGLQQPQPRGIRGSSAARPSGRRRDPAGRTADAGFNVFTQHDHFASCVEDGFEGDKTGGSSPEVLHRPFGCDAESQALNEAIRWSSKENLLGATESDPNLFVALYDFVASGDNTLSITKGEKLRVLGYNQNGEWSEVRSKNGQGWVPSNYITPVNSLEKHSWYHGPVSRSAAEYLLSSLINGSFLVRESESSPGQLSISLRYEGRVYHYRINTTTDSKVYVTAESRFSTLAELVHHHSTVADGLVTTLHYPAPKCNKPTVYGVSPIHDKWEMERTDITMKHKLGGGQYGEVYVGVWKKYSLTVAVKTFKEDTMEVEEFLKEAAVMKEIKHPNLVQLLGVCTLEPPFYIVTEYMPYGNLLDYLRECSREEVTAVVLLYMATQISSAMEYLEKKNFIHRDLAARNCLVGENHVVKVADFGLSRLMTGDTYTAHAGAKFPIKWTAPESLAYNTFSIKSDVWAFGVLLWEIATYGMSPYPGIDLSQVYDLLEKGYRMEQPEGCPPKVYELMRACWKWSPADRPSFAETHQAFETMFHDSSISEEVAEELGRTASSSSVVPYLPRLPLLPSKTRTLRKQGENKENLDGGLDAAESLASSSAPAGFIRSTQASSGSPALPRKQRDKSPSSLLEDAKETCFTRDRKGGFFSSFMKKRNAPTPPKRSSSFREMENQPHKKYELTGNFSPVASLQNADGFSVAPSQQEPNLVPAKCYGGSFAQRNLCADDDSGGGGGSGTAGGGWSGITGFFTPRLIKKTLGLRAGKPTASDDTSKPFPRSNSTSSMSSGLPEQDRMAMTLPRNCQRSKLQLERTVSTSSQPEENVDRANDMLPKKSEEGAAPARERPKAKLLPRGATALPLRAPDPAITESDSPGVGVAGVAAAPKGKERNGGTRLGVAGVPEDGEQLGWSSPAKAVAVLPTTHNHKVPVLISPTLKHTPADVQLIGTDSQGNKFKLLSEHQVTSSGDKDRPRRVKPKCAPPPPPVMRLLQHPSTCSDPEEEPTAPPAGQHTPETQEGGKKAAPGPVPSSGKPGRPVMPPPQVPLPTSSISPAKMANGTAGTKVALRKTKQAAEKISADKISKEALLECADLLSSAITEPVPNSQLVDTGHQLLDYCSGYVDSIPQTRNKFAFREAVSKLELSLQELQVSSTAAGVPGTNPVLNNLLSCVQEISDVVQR
T5 sequence (Q9HBY8 whole entry): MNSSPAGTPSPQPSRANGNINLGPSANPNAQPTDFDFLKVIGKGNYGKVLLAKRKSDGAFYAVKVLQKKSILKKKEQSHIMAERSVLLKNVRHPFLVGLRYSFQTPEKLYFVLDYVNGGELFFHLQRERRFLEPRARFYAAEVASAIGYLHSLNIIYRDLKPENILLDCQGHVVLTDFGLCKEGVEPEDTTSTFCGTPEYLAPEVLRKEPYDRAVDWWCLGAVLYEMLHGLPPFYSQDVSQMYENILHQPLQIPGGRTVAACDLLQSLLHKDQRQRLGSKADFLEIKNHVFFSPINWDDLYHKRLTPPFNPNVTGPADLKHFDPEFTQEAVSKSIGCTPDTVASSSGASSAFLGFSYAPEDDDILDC
T6 sequence (O00141 whole entry): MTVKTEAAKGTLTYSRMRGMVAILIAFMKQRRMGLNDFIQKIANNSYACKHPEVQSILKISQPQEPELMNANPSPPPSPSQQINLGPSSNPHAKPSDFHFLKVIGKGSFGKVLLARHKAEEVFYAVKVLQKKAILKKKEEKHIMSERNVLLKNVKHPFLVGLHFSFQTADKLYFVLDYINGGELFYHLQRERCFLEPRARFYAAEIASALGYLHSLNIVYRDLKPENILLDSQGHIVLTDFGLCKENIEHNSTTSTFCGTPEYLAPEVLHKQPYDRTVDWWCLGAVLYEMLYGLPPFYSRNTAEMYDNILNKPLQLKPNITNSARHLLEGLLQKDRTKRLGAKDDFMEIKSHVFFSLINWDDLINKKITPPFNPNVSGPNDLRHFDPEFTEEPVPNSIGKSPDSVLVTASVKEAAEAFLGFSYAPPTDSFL

In the case of c1cc(CC2CCOCC2)n2nc(Nc3ccc4c(NC5CCOCC5)n[nH]c4c3)nc2c1 [CC-509, [3-(2H-3,4,5,6-tetrahydropyran-4-ylamino)(1H-indazol-6-yl)][5-(2H-3,4,5,6-tetrahydropyran-4-ylmethyl)(2H-1,2,4-triazolo[1,5-a]pyridin-2-yl)]amine], the remaining activity at 3 µM (Arg_m; read-out: % control) is reported as 31%, the remaining activity at 3 µM (GRK2_h; read-out: % control) is reported as 82% and the remaining activity at 3 µM (PKC-alpha_h; read-out: % control) is reported as 71%. It also gave a remaining activity at 3 µM (PKC-betaII_h; read-out: % control) of 43%, a remaining activity at 3 µM (SGK2_h; read-out: % control) of 89% and a remaining activity at 3 µM (SGK_h; read-out: % control) of 96%. The “number of kinases inhibited by >80% of 256 kinases” value (panel of 256 kinases) was 27, the Gini score (panel of 256 kinases; calculated from activity in the kinase panel at 3 μM) was 0.53 and the IC50 ([1]; Homo sapiens, B-cell, B-cells BCR, curve shown in figure, read-out: IC50 printed in Fig 3B panel) was 570 nM. The IC50 ([1]; Homo sapiens, B-cell, mean ± SD, minimum n = 3, read-out: IC50, BCR-dependent upregulation of cell surface CD69) was 510 ± 90 nM, the IC50 ([2]; Homo sapiens, HWB Basophils FcεR, curve shown in figure, read-out: IC50 printed in Fig 3D panel) was 1610 nM and the FcεR-independent basophil activation ([2]; N-formyl-L-methionyl-L-leucyl-L-phenylalanine stimulation, data not shown) was “not affected”. For the same compound, the IC50 ([2]; human whole blood, mean ± SD, minimum n = 3, read-out: IC50, FcεR-dependent basophil activation (CD63)) was 1520 ± 1050 nM and the “IC50, TNFα-induced IL-6 production” value (MH7A cells) was “did not inhibit”.
In the case of COc1cc(Nc2ncc(F)c(Nc3ccc4c(n3)NC(=O)C(C)(C)O4)n2)cc(OC)c1OC [R406, reference compound], the “% control” value (Arg_m; 3 µM) is reported as 34%, the “% control” value (GRK2_h; 3 µM) is reported as 99% and the “% control” value (PKC-alpha_h; 3 µM) is reported as 42%. The “% control” value (PKC-betaII_h; 3 µM) was 19%, the “% control” value (SGK2_h; 3 µM) was 92% and the “% control” value (SGK_h; 3 µM) was 94%. For the same compound, the “number of kinases inhibited by >80% of 256 kinases” value (panel of 256 kinases) was 75, the IC50 ([1]; mean ± SD, minimum n = 3, read-out: IC50, BCR-dependent upregulation of cell surface CD69) was 400 ± 220 nM and the “IC50, FcεR-dependent basophil activation (CD63)” value ([2]; human whole blood, mean ± SD, minimum n = 3) was “not active”. The IC50 (MH7A cells) was 1040 ± 130 nM.
